The results in this text go back to patent US11879021B2, “Cyclic peptides and uses thereof” (UNIVERSITÉ DE MONTRÉAL, priority 2016, dated 2024).

The structures appear in SMILES notation. Several values for one entry are separate records, joined by “and”; a condition that tells them apart may be missing. Equal values may be shown once. Numbered stars: 1 amine (or outer) side, 2 acyl side, 3 side chain; on linkers, the order of the positions; unused ones are H or OH. Square brackets hold non-standard residues; d marks the D form. Peptide text beside a SMILES is read from it. azaTyr = O=C(N(Cc1ccc(O)cc1)N[*:1])[*:2]

The test system of test [1] is R-FSL-1 (TLR2 agonist)-induced NO production in RAW macrophage cell line. Description: Nitric oxide (NO) production induced by TLR2 agonist R-FSL-1 in RAW macrophage cell line. The test is classed as cell-based, murine. The conditions noted are these: RAW macrophages, at the concentration tested (10^−6 or 10^−7 M), FIGS. 4A to 4F. Here is the method: The murine RAW1 macrophage cell line was obtained from American Type Cell Collection (ATCC #TIB-71), seeded at 1.5×10^5 cells/well in Dulbecco's Modified Eagle's medium (DMEM) containing 100 U/mL of penicillin (Pen) and 100 μg/mL of streptomycin (Strep) on a 48-well plate (Costar® #3548), and incubated at 37° C. with 5% CO2. After 2 h, the cell culture medium of adhered cells was removed and replaced by DMEM-Pen/Strep medium containing 0.2% of bovine serum albumin (BSA), and supplemented with the cyclic peptides at a concentration of 10^−6 or 10^−7 M. MPE-001 (DBG178, His-D-Trp-Ala-AzaTyr-D-Phe-Lys-NH2) and [azaLys^6]-GHRP-6 (His-D-Trp-Ala-Trp-D-Phe-azaLys-NH2, negative control) at 10^−6 M were used as positive and negative controls, respectively. After 1 h pre-incubation, the cells were stimulated overnight using the TLR2 ligand fibroblast-stimulating lipopeptide (R-FSL-1) (Invivogen® #L7022) at a concentration of 300 ng/mL. Supernatants were then collected for nitrite production analysis by fluorescence using 2,3-diaminonaphthalene (DAN). Briefly, 25 μL of sample was incubated with 0.5 μg of DAN in a 100 μL final volume of phosphate buffer (50 mM, pH 7.5) at room temperature in the dark. After 15 min, the reaction was stopped with 20 μL of NaOH (2.8N) and the plate was read using a fluorescence plate reader (TECAN® Safire, λexc 365 nm and λem 430 nm).

The target of a further test is T1, CD36 (Rattus norvegicus, UniProt Q07969).
T1 construct: from tissue; host or cells: Heart (cardiac membranes) of Sprague Dawley rats from Charles River
Description: Competition binding of photoactivatable [125I]-Tyr-Bpa-Ala-Hexarelin to CD36 in rat cardiac membranes. The conditions noted are these: competition with [125I]-Tyr-Bpa-Ala-Hexarelin, rat heart membranes; for IC50: read-out: IC50 (μM), binding affinity for CD36. Here is the method: Hearts from Sprague Dawley rats (300-325 g) from Charles River were cut into small pieces and homogenized with a Polytron® at low speed, 3×15 sec in buffer A (10 mM NaHCO3, 5 mM NaN3, 10 μM Pefabloc®, 0.1 μM Aprotinin, 1 μM Pepstatin A, 1 μM Leupeptin, pH 7.0) at a concentration of […] of tissue. The homogenate was first centrifuged at 8,700×g for 20 min in a Sorvall® centrifuge and the supernatant was collected on ice. The pellet was resuspended and re-homogenized with a Glass-Teflon® Potter by 5 strokes. This homogenate was recentrifuged at 8,700×g for 10 min and the resulting supernatant was combined with the first collected supernatant. The combined supernatant was centrifuged at 35,000×g for 20 min. The pellet fraction obtained was resuspended in Buffer B (20 mM Tris-maleate, 0.6M KCl, pH 6.8) in a volume corresponding to 20 mL/g of fresh tissue using a glass homogenizer with a Teflon pestle. The resulting suspension was centrifuged again at 35,000×g for 60 min. and the pellet fraction obtained was resuspended in Buffer C (10 mM Tris/HCl buffer pH 7.4) and thoroughly homogenized in a glass with a Teflon® pestle (20 ml/g of fresh tissue). This suspension was submitted to another centrifugation at 35,000×g for 60 min. The collected pellet was resuspended in 50 mM Tris/HCl buffer pH 7.4) containing 2 mM EGTA in a final volume corresponding to 1-2 mL/g of fresh tissue. The membrane preparation obtained was frozen at −80° C. Protein concentration was determined using the bicinchoninic acid (BCA) method, employing BSA as standard.
The reaction was started by adding 3 nmol of H2O2 for 5 min at room temperature. This step was repeated twice with a period of 5 min of incubation for each addition. The reaction was stopped by diluting the mixture with 1 mL of 0.1% TFA. The radioiodinated peptide was purified by HPLC on a reverse-phase Vydac® C18 column with a 60-min linear gradient from 20% to 50% of acetonitrile in 0.1% TFA. The eluted radiolabelled tracer was collected, aliquoted (50×10^6 cpm/fraction) and stored at −80° C.
Binding studies with MPE-298 were done with increasing concentrations from 0.01 to 5 μM of competition ligands. Nonspecific binding was defined as binding not displaced by 50 μM corresponding peptide. All peptide containing solutions were diluted in Buffer B. Buffer A and B were degassed under vacuum, and used in capped tubes in order to minimize lipid peroxidation. Before the incubation period, all tubes were put under a low flow of nitrogen. All material was kept on ice and the binding assay was performed in darkness. After an incubation period of 60 min at 22° C. (vortexing every 15 min), membranes were submitted to irradiation with UV lamps (365 nm) for 15 min at 4° C. After centrifugation at 12,000×g for 15 minutes, the pellets were resuspended in 40 μl of sample buffer (62 mM Tris-HCl, pH 6.8, 2% SDS, 10% glycerol, 15% 2-mercaptoethanol, and 0.05% bromophenol blue), and boiled for 5 min prior to being subjected to electrophoresis. Proteins (50 μg/40 μl) were separated on a 7.5% SDS-PAGE Bio-Rad® Mini-Protean electrophoresis system (150 V for 1 h). The gels resulting from SDS/PAGE were fixed, colored in Coomassie Brilliant Blue R-250, dried, exposed to a storage phosphor intensifying screen (Amersham Biosciences), and analysed using a Typhoon® PhosphorImager (GE Healthcare Life Sciences®). […] The curves were analysed by using software package (Graphpad® prism version 7.0).

The subject of test [2] is R-FSL-1 (TLR2 agonist)-induced TNF-α and CCL-2 release in RAW macrophages. Description: R-FSL-1-induced TNF-α and CCL-2 release in RAW macrophages. The conditions noted are these: 10^−7 M. The format is cell-based, murine. Here is the method:
The murine RAW1 macrophage cell line was obtained from American Type Cell Collection (ATCC #TIB-71). RAW cells were seeded at 150,000 cells per well in a 48-well plate (Costar® #3548) and weaned overnight in medium (DMEM supplemented 1% penicillin/streptomycin) at 37° C. with 5% CO2. The next day, the medium was changed to DMEM-1% penicillin/streptomycin supplemented with 0.2% BSA. The cells were first pretreated with 300 μL of azapeptides DBG178 (MPE-133, reference standard), 25 (MPE-210), 26 (MPE-266), 28 (MPE-268), 32 (MPE-267), 33 (MPE-298), 38 (MPE-308), 35 (MPE-300), 39 (MPE-310) and azaLys6-GHRP-6 (as negative control) at 10^-7M for 30 min. Then, […] of the TLR2 agonist, R-FSL-1 (300 ng/ml final concentration, R-FSL-1, Invivogen® #L7022) was added for 4 h period of incubation at 37° C. with 5% CO2. At the end of the incubation period, media were collected and stored at −80° C. for TNF-α and CCL-2 assays using ELISA kits (EbioScience® #88-7391 and #88-7324). Results were analyzed by analysis of variance (ANOVA) with post hoc comparisons using Dunnett's test with a statistical software package (Graph Pad Prism® version 7.0). P<0.05 was considered statistically significant.

T1 sequence (Q07969 whole entry): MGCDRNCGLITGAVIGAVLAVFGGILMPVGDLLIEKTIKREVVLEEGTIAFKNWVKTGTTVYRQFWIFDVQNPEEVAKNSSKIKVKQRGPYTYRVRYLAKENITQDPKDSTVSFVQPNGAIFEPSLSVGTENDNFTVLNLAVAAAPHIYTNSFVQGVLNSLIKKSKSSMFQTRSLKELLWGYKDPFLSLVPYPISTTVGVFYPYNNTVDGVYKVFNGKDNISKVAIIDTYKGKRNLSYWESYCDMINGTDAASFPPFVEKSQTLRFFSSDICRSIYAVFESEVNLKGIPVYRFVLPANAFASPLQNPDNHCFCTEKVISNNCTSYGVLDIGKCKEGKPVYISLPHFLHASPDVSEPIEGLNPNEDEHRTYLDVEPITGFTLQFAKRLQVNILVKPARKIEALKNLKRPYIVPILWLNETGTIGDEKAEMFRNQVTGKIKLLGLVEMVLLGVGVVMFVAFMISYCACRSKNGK

Regarding `C=CCN1CC#CC[C@H](NC(=O)[C@H](C)N)C(=O)N[C@H](Cc2c[nH]c3ccccc23)C(=O)N[C@@H](C)C(=O)N[C@@H](Cc2c[nH]c3ccccc23)C(=O)N[C@H](Cc2ccccc2)C(=O)N[C@H](C(N)=O)CCCC1` [MPE-075], in test [1], the “suppression of R-FSL-1-mediated NO production” value is “significant suppression”. At CD36, the “binding to CD36 (in words)” value is on record as “detectable binding” and the IC50 – broadly, the midpoint of a concentration-inhibition curve – was 0.66 µM.
With `C[C@H](NC(=O)[C@@H](Cc1c[nH]c2ccccc12)NC(=O)[C@@H](N)Cc1c[nH]cn1)C(=O)NN(Cc1ccc(O)cc1)C(=O)N[C@H](Cc1ccccc1)C(=O)N[C@@H](CCCCN)C(N)=O` [MPE-001, His-D-Trp-Ala-AzaTyr-D-Phe-Lys-NH2, reference compound] (H-H[dW]A[azaTyr][dF]K-NH2), on CD36, the IC50 is roughly 2 µM.
With `CN1CC#CCN(NC(=O)[C@@H](Cc2c[nH]c3ccccc23)NC(=O)[C@@H](N)Cc2cnc[nH]2)C(=O)N[C@@H](Cc2c[nH]c3ccccc23)C(=O)N[C@H](Cc2ccccc2)C(=O)N[C@H](C(N)=O)CCCC1` [MPE-210], the IC50 at CD36 is 2.06 µM. Besides, in test [2], the “effect on R-FSL-1-induced CCL-2 release” value is listed as “no significant effect” and the “effect on R-FSL-1-induced TNF-α release” value is on record as “no significant effect”.
In the case of `C=CCN1CC#CCN(NC(=O)[C@@H](Cc2c[nH]c3ccccc23)NC(=O)[C@@H](N)Cc2cnc[nH]2)C(=O)N[C@@H](Cc2c[nH]c3ccccc23)C(=O)N[C@H](Cc2ccccc2)C(=O)N[C@H](C(N)=O)CCCC1` [MPE-266], the “suppression of R-FSL-1-mediated NO production” value in test [1] was “significant suppression”. The IC50 at CD36 stood at 0.68 µM. Besides, in test [2], the “effect on R-FSL-1-induced CCL-2 release” value is on record as “significant inhibitory effect” and the “effect on R-FSL-1-induced TNF-α release” value is recorded as “significant inhibitory effect”.
With `C=CCN1CC#CC[C@@H](NC(=O)[C@H](C)N)C(=O)N[C@@H](C)C(=O)N[C@@H](Cc2c[nH]c3ccccc23)C(=O)N[C@H](Cc2ccccc2)C(=O)N[C@H](C(N)=O)CCCC1` [MPE-110], on CD36, the “binding to CD36 (in words)” value is “detectable binding” and the half-inhibitory concentration (IC50) turned out to be 3.32 µM.
For the compound `C=CCN1CC#CCN(NC(=O)C(C)N)C(=O)N[C@H](Cc2c[nH]c3ccccc23)C(=O)N[C@@H](C)C(=O)N[C@@H](Cc2c[nH]c3ccccc23)C(=O)N[C@H](Cc2ccccc2)C(=O)N[C@H](C(N)=O)CCCC1` (stereo in doubt) [MPE-202], on CD36, the IC50 worked out at 14.3 µM.
Consider `C=CCN1CC#CC[C@H](NC(=O)[C@H](C)N)C(=O)N[C@@H](C)C(=O)N[C@@H](Cc2c[nH]c3ccccc23)C(=O)N[C@H](Cc2ccccc2)C(=O)N[C@H](C(N)=O)CCCC1` [MPE-111], for which, in test [1], the “suppression of R-FSL-1-mediated NO production” value is “significant suppression”. Further, on CD36, the “binding to CD36 (in words)” value is listed as “detectable binding” and the IC50 came to 0.24 µM.
Consider `C=CCN1CC#CCN(NC(=O)[C@H](C)N)S(=O)(=O)N[C@H](Cc2c[nH]c3ccccc23)C(=O)N[C@@H](C)C(=O)N[C@@H](Cc2c[nH]c3ccccc23)C(=O)N[C@H](Cc2ccccc2)C(=O)N[C@H](C(N)=O)CCCC1` [MPE-400], for which, at CD36, the “binding to CD36 (in words)” value is reported as “detectable binding” and the IC50 came out at 11.6 µM.
On to `C=CCN1CC#CCN(NC(=O)[C@@H](C)N)C(=O)N[C@H](Cc2c[nH]c3ccccc23)C(=O)N[C@@H](C)C(=O)NN(Cc2ccc(OC)cc2)C(=O)N[C@H](Cc2ccccc2)C(=O)N[C@H](C(N)=O)CCCC1` [MPE-189], for which the “suppression of R-FSL-1-mediated NO production” value in test [1] was “significant suppression”. Moreover, at CD36, the “binding to CD36 (in words)” value is “detectable binding” and the IC50 came to 3.26 µM.
As to `C=CCN1CC#CCC(NC(=O)[C@H](C)N)C(=O)N[C@H](Cc2c[nH]c3ccccc23)C(=O)N[C@@H](C)C(=O)N[C@@H](Cc2c[nH]c3ccccc23)C(=O)N[C@H](Cc2ccccc2)C(=O)N[C@H](C(N)=O)CCC1` (some centres unmarked) [MPE-048], at CD36, the “binding to CD36 (in words)” value is “detectable binding” and the IC50 amounted to 13.7 µM.
As for `C=CCN1CC#CCN(NC(=O)C(N)C(C)C)C(=O)N[C@H](Cc2c[nH]c3ccccc23)C(=O)N[C@@H](C)C(=O)N[C@@H](Cc2c[nH]c3ccccc23)C(=O)N[C@H](Cc2ccccc2)C(=O)N[C@H](C(N)=O)CCCC1` (stereo in doubt) [MPE-203], the IC50 on CD36 was determined as 2.26 µM.
For the compound `C=CCN1CC#CC[C@@H](NC(=O)[C@H](C)N)C(=O)N[C@H](Cc2c[nH]c3ccccc23)C(=O)N[C@@H](C)C(=O)N[C@@H](Cc2c[nH]c3ccccc23)C(=O)N[C@H](Cc2ccccc2)C(=O)N[C@H](C(N)=O)CCCC1` [MPE-074], at CD36, the “binding to CD36 (in words)” value is “detectable binding” and the IC50 was 1.04 µM.
With `C=CCN1CC#CCN(NC(=O)[C@H](C)N)C(=O)N[C@H](Cc2c[nH]c3ccccc23)C(=O)N[C@@H](C)C(=O)N[C@H](C(=O)N[C@H](Cc2ccccc2)C(=O)N[C@@H](CCCCN)C(N)=O)CCCC1` [MPE-300], the “suppression of R-FSL-1-mediated NO production” value in test [1] is recorded as “significant suppression”. In addition, the IC50 at CD36 was 10 µM and 10.6 µM.
